Laboratory results taken from patent publication US20020107195A1, “Method for inducing chemotaxis in endothelial cells by administering stromal cell derived factor-1alpha” (SmithKline Beecham Corporation, priority 1998, published 2002).
Entries after “also recorded” stand apart in the source; their conditions may differ. *1 amine or outer side, *2 acyl side, *3 side chain or, on linkers, in order; H or OH if unused. Where a SMILES comes first, the peptide text is derived from it. Bridges are numbered along the chain shown (N, C = ends). Roman numbers before positions name the chains, in order. [ ]: non-standard residue; d: D form. Actinocin(9to1) = Cc1c2oc3c(C)ccc(C(=O)[*:1])c3nc-2c(C(=O)[*:2])c(N)c1=O; NMeV = CN[C@H](C(=O)O)C(C)C; Sar = CNCC(=O)O

What was measured:
Format in all cases: cell-based, human
[1] = test system: CXCR4 mRNA; experiment: Northern blot analysis of steady state CXCR4 mRNA levels in HUVEC treated with mediators; conditions: for CXCR4 mRNA levels (normalized against GAPDH): HUVEC, after 24 hours of treatment
Method: Total RNA (10 μg/lane) was fractionated on 1% agarose-formaldehyde gels, transferred to a nylon membrane (Amersham Corp., Piscataway, N.J.) and covalently linked with a UV crosslinker (Stratagene Inc., La Jolla, Calif.). For Northern analysis, 515-base pair size cDNA probes of CXCR1, CXCR2, CXCR3, CXCR4, CCR1, CCR2 and CCR3, were used. The GAPDH gene probe (Clontech, Palo Alto, Calif.) was used to normalize RNA sample differences in each lane. The probes were labeled with [a-^32P] dCTP using a random-prime labeling kit (Promega Corp., Madison, Wis.), and hybridized overnight at 42° C. in 6X SSC buffer (1X SSC=150 mM NaCL, 15 mM Na Citrate), .1% sodium dodecyl sulfate, 5X Denhardt's solution, 50% formamide, and 100 μg/ml denatured salmon sperm DNA. Membranes were washed with a final stringency of 0.2X SSC at 60° C., and analyzed with a phosphorimager (Molecular Dynamics, Inc., Sunnyvale, Calif.) after exposure at room temperature for 3-5 days. Densitometry was used for quantitative analysis.
CXCR4 transcripts are well expressed in many non-hematopoietic vascular tissues like heart, brain, lung and colon. Federsppiel, et al. Genomics 16: 707-712 (1993). However, at the cellular level, this expression was selective for EC, as indicated by the failure of total RNA from human pulmonary artery smooth muscle cells (HPASMC) to hybridize with the CXCR4 cDNA probe. To understand the regulation of CXCR4 in EC during inflammation, we treated the HUVEC with various mediators and measured its steady state mRNA levels after normalization against the GAPDH cDNA probe.
In order to understand the kinetics of inflammation mediated transcriptional regulation of CXCR4, actinomycin D was used to determine the half-life of CXCR4 mRNA. […] Many cytokines and cytokine receptors, including CXCR4, have A-U rich elements in their untranslated regions that serve as targeting motifs for transcript degradation by specific RNAses. Shaw, et al., Cell 46: 659-667 (1986). In addition to its action as a transcriptional inhibitor, actinomycin D also has the unique and immediate effect of imparting stability to existing transcripts of mRNA undergoing rapid turnover.

[2] = test system: HUVEC; experiment: Measurement of intracellular calcium [Ca2+]i in EC (fura-2); conditions: for elevation of [Ca+2]i (mobilization of intracellular Ca2+): HUVEC / EC
Method: For measurements of intracellular calcium [Ca^2+]i, EC were loaded with 2 μM fura-2/AM (Molecular Probes, Eugene, OR), rinsed with 1 mM EDTA in Dulbecco's PBS, and resuspended into Kreb's Ringer's Henseleit (KRH) buffer, pH 7.4, containing 0.1% gelatin. Cells (1x 10^6/ml) were stored on ice and diluted for use 1:1 with fresh KRH buffer at 37° C. Fluorescence of fura-2 in cells was measured with a University of Pennsylvania Biomedical Instruments Group dual channel fluorometer. Data was captured as voltage recordings with the aid of a PC and analyzed by Igor version 1.28 software (WaveMetrics, Lake Oswego, Oreg.). Chemokines were added from concentrated stocks in water. To establish the integrity of EC, we also measured [Ca^2+]i stimulated by thrombin.
To determine whether the human EC express a functional CXCR4 receptor, our subsequent studies used SDF-1α along with several other chemokines to assess their ability to induce changes in intracellular levels of Ca^+2 and cause migration. […] In contrast, other chemokines like γ-IP10, IL-8, PF-4, MIP-1α, MCP-1, eotaxin and RANTES had no effect on EC.

[3] = test system: HUVEC; experiment: HUVEC migration (chemotaxis) assay, Transwell; conditions: for effect on EC chemotaxis: HUVEC
Method: HUVEC migration assay was performed using 5×10^5 cells/well (in CS-C medium) in the top chamber of a 6.5 mm diameter, 8-μM pore polycarbonate Transwell culture insert (Costar, Cambridge, Mass.) as reported previously (36). Incubation was carried out at 37° C. in 5% CO2 for 20 hrs. After incubation, migrated cells in the lower chamber were counted with a ZM Coulter counter (Coulter Diagnostics, Hialeah, Fla.). Percent migration was calculated based on the total initial input cells per well.
The Applicant next studied the chemotactic response of EC to SDF-1α. SDF-1α induced a pronounced migration of ˜40% of input EC in a concentration-related manner with an EC50 of 10-20 nM. It is intriguing to observe the high percentage of EC that migrated in response to SDF-1α, even though EC have limited migratory capability in comparison with neutrophils and monocytes. In contrast with other EC chemo-attractants like vitronectin, the chemotactic response to SDF-1α was kinetically robust, and a majority of the migrated cells entered the lower chamber without adhering to the Transwell filter. In these experiments, other chemokines like γ-IP10, IL-8, MIP-1α, MCP-1, eotaxin and RANTES had no effect on EC chemotaxis. Taken together, these observations have obvious biological significance, in that they indicate that SDF-1α plays a role in re-endothelialization after injury, an event that requires the directed migration of EC.

IL-1β: recombinant human IL-1β purchased from Genzyme
CXCR4 mRNA levels (normalized against GAPDH) [1]: significant induction

eotaxin: chemokine from R&D Systems
elevation of [Ca+2]i (mobilization of intracellular Ca2+) [2]: no effect | effect on EC chemotaxis [3]: no effect

IL-8: chemokine from R&D Systems
elevation of [Ca+2]i (mobilization of intracellular Ca2+) [2]: no effect | effect on EC chemotaxis [3]: no effect

TGF-β
CXCR4 mRNA levels (normalized against GAPDH) [1]: no effect

γ-IP10: chemokine from R&D Systems
elevation of [Ca+2]i (mobilization of intracellular Ca2+) [2]: no effect | effect on EC chemotaxis [3]: no effect | CXCR4 mRNA levels (normalized against GAPDH) [1]: no effect

IFN-γ: recombinant human IFN-γ purchased from Genzyme
CXCR4 mRNA levels (normalized against GAPDH) [1]: decrease

Cc1c2oc3c(C)ccc(C(=O)N[C@@H]4C(=O)N[C@H](C(C)C)C(=O)N5CCC[C@H]5C(=O)N(C)CC(=O)N(C)[C@@H](C(C)C)C(=O)O[C@@H]4C)c3nc-2c(C(=O)N[C@@H]2C(=O)N[C@H](C(C)C)C(=O)N3CCC[C@H]3C(=O)N(C)CC(=O)N(C)[C@@H](C(C)C)C(=O)O[C@@H]2C)c(N)c1=O [actinomycin D] (I: T[dV]P[Sar][NMeV] / II: T[dV]P[Sar][NMeV]; ester I:1-I:C, II:1-II:C; linker I:N-II:N via Actinocin(9to1))
steady state levels of CXCR4 mRNA after short term exposure ([1]; EC cultures, exposure of only 15-30 minutes): sharply increasing | CXCR4 mRNA levels (normalized against GAPDH) [1]: almost complete abrogation

SDF-1α: stromal cell derived factor-1α, polypeptide of SEQ ID NO:4, CXC chemokine ligand of CXCR4; obtained from Gryphon Sciences
concentration of maximal [Ca+2]i response ([2]; HUVEC): 100 nM | elevation of [Ca+2]i (mobilization of intracellular Ca2+) [2]: rapid, though variable elevation; also recorded: induced a rapid mobilization | migration, percent of input EC ([3]; 20 hrs incubation, Transwell): ~40% | EC50 ([3]; concentration-related migration of EC): 10 to 20 nM

MCP-1: chemokine from R&D Systems
elevation of [Ca+2]i (mobilization of intracellular Ca2+) [2]: no effect | effect on EC chemotaxis [3]: no effect

TNF-α
CXCR4 mRNA levels (normalized against GAPDH) [1]: to a lesser extent, TNF-α, caused a decrease

B1: RANTES: chemokine from R&D Systems (protein, UniProt P13501 24-91, looked up)
C-C motif chemokine 5: SPYSSDTTPCCFAYIARPLPRAHIKEYFYTSGKCSNPAVVFVTRKNRQVCANPEKKWVREYINSLEMS
elevation of [Ca+2]i (mobilization of intracellular Ca2+) [2]: no effect | effect on EC chemotaxis [3]: no effect

B2: PF-4: chemokine from R&D Systems (protein, UniProt P02776 32-101, looked up)
Platelet factor 4: EAEEDGDLQCLCVKTTSQVRPRHITSLEVIKAGPHCPTAQLIATLKNGRKICLDLQAPLYKKIIKKLLES
elevation of [Ca+2]i (mobilization of intracellular Ca2+) [2]: no effect

B3: MIP-1α: chemokine from R&D Systems (protein, UniProt P10147 24-92, looked up)
C-C motif chemokine 3: SLAADTPTACCFSYTSRQIPQNFIADYFETSSQCSKPGVIFLTKRSRQVCADPSEEWVQKYVSDLELSA
elevation of [Ca+2]i (mobilization of intracellular Ca2+) [2]: no effect | effect on EC chemotaxis [3]: no effect
